From EP4506341A1, “TISSUE REGENERATION APPROACHES” (ZeCardio Therapeutics SL, priority 2023, dated 2025)

Key:
[1] = system: H9C2 cells; test: MTT proliferation assay in Tob1 expressing (control) H9C2 cells; type: cell-based, rat; settings: for H9C2 % Proliferation (normalized to control): 4 microMolar, MTT assay after 144 hours, increase above control values; for EC50 in H9C2 cells lower than EC50 in Tob1 KO H9C2 cells (selectivity for Tob1): H9C2 control vs Tob1 KO H9C2 cells, MTT; for EC50: Rattus norvegicus, H9C2 control cells, proliferation by MTT, 144 hours, 1,28 nM to 20 µM
Description: (§1) 3-(4,5-dimethylthiazol-2-yl)-2,5-diphenyltetrazolium bromide, MTT (Sigma, M5655-500MG) assay was used as a surrogate to evaluate cell number and cell proliferation in H9C2 and MCF-7 cells. MTT is a colorimetric assay that measures cell metabolic activity in viable cells, resulting from the activity of mitochondrial dehydrogenases which cleave the tetrazolium ring of the yellow tetrazolium salt MTT, yielding formazan crystals. The protocol was designed to align Tob1 peak decrease in mRNA expression levels (48-96 hours post-transfection) with the period of exponential growth of the cells (24-72 hours post-replating).
(§2) MCF-7 cells and H9C2 cells were seeded at 100,000 cells/well in 24-well in DMEM + 10% FBS plates to reach 80-90% at time of transfection. MCF-7 and H9C2 cells were transfected 24 hours post-plating with Silencer® Select siRNAs to knock down Tob1. 48 hours post-transfection, cells were lifted and plated at 10000 (MCF-7) and 8000 cells/well (H9C2) in 96-well plates and grown for 144 hours. At day 6 (144 hours), 0,5 mg/ml MTT was added and incubated for 3 hours, producing formazan crystals that were solubilized with SDS 20%+ HCl 0.02N. 24 hours later, absorbance was measured at 590 nm with the spectrophotometer FLUOstar Omega plate reader (BMG LabTech).
(§3) Both Tob1 expressing and Tob1 knockout H9C2 cells were seeded at 8000 cells/well in 96-well plates. 48 hours later, cells were treated with 1.28 nM; 6.4 nM; 32 nM, 160nM, 800 nM, 4 µM and 20 µM ZXR-807, ZXR-810; ZXR-081 and ZXR-090 and cell proliferation was measured 144 hours post-treatment using the MTT assay as described above.
Once lead compounds were selected, their efficacy, potency and selectivity at promoting proliferative responses, were evaluated in vitro in rat cardiomyoblasts (H9C2 cells) using MTT assay. H9C2 cells were treated with vehicle 0,3% DMSO and increasing concentrations of Tob1 inhibitors: ZXR-807, ZXR-810, ZXR-081 and ZXR-090, (1,28 nM to 20 µM), followed by the assessment of proliferation, using the MTT assay, after cells were left to grow for 144 hours (6 Days).

[2] = system: hiPSC cardiomyocytes; test: Cell migration (wound healing) assay in hiPSC-CMs; type: cell-based, Human; settings: 8 nM, 144 hours
Description: (§4) hiPSC-CMs cells were seeded at 25,000 cells per well in 96 wells plates. 168 hours after seeding, cells were scraped with a 200 µL tip and treated with 8, 40 and 200nM ZXR-807, ZXR-810, ZXR-081 and ZXR-090. Plates were imaged with an inverted microscope (Leica, DMI6000B) right after generating the wound (0 h) and 144 hours post-scraping.
All images were analyzed using the Fiji software (Schindelin et al., 2012) and the amount of cellular migration was determined by calculating the wound area at 0h and 28 hours or 144 hours and normalized to control vehicle-treated cells (0,3% DMSO).

[3] = system: Cdk1; test: Real time PCR of proliferation marker gene Cdk1 in H9C2 cells; type: cell-based, rat; settings: 100 nM in H9C2 cells; for Cdk1 mRNA expression increase: normalized to vehicle-treated cells
Description: (§5) In order to evaluate 1) efficiency of Tob1 knockdown in MCF-7 and H9C2 cells and 2) expression levels of proliferation markers (Pcna, Cdk1 and Ccnb1) in H9C2 cells treated with the compounds of the invention, H9C2 cells were harvested by trypsinization and centrifuged at 300 x g for 5 min. Total mRNA was isolated using the Maxwell 16 LEV simplyRNA Cells Kit or Tissue Kit (Promega, Madison, WI) following the manufacturer's instructions. Nanodrop ND-1000 Spectrophotometer (Thermo Fisher Scientific, Waltham, MA) was used to quantity the amount of RNA extracted. cDNA synthesis was performed from 300 ng of total RNA with the SuperScript IV First-Strand Synthesis System (Thermo Fisher Scientific, Waltham, MA).
(§6) Real-time PCR was conducted using LightCycler 480 SYBR Green I Master on a LightCycler 480 thermal cycler (Roche, Basel, Switzerland). The expression levels of the indicated genes were calculated by the conventional 2^-DDCt method, with normalization to housekeeping gene glyceraldehyde-3-phosphate dehydrogenase (GAPDH).

[4] = system: Ki67; test: Nuclear Ki67 immunostaining in hiPSC-CMs after migration assay; type: cell-based, Human; settings: 8 nM, 144 hrs, hiPSC cardiomyocytes
Description: as §4
Following the migration assay, the medium was aspirated from the 96-well plates, and cells were washed twice with phosphate buffered saline solution (PBS) 1x (Fisher bioreagents, BP399-4). Cells were fixed with 4% paraformaldehyde (Sigma, 158127) for 10 minutes at room temperature and washed 3 times with PBS 1x. Cells were permeabilized with Triton™ X-100, 0.03% (Merck, T8787) and blocked with 0.5% Goat serum (ThermoFisher, 16210064) in PBS 1x, during 1 hour at room temperature. The primary antibodies Ki67 rabbit antibody 1/100 (Santacruz, sc-23900), and cardiac Troponin (cTnT mouse antibody 1/100 (ThermoFisher, MA5-12960) were diluted in the following buffer: Triton™ X-100 0.03% and 1% Bovine serum albumin (BSA) 10% (nzytech, MB04602) and PBS 1x. hiPSC-CMs were incubated with the primary antibodies overnight at 4°C, washed three times with PBS 1x and incubated with the secondary antibodies goat anti-mouse or anti -rabbit coupled to Alexa fluorescent dyes (company). DAPI 1/1000 (Merck, D9542-5MG) was incubated for 20 min at room temperature to visualize nuclei. Cells were washed out 3x with PBS and kept in PBS at 4°C.
Preparations were examined on a fluorescent inverted microscope Leica, DMI6000B using 20x dry objectives from Leica. Images were analyzed with the open source image processing package Fiji to quantify Nuclear Ki67 fluorescent intensity and cellular cardiac troponin T (cTnT) normalized to the number of nuclei in the field of view

[5] = system: Tob1 KO H9C2 cells; test: MTT proliferation assay in Tob1 knockout H9C2 cells; type: cell-based; settings: Rattus norvegicus; Tob1 depleted (KO) H9C2 cells; proliferation by MTT, 144 hours
Description: 100.000 H9C2 cells were plated in a 24 well plate day before transfection with lipofectamine CRISPRMAX™ (Thermofisher, CMAX00001), to obtain a 70% of confluence. The CRISPRMAX™ assay was performed following the manufacturer's instructions. Briefly Cas9 nuclease/gRNA RNP complexes were prepared by combining the following components , 3,85 µ! of 2 µM Alt-R S.p. Cas9 Nuclease v3 (1081059, IDT)1; 2,25 µ! of 2 µM sgRNAs (Tob1 sgRNA1: […] (SEQ ID NO: 3) and Tob1 sgRNA2: […] (SEQ ID NO: 4), negative control: GCACUACCAGAGCUAA (SEQ ID NO: 5), Synthego), 2,5 µ! Cas9 plus reagent in 16,65 µl Opti-MEM™(Gibco™; Life Technologies, Grand Island, NY, USA) in tube 1 and 1,5 µl lipofectamine CRISPRMAX™ in 25 µ! in Opti-MEM™ in tube 2. The Cas9/sgRNA ribonucleoprotein (RNP) complex was obtained by incubating the mix of tub1 and 2 for 10 minutes at room temperature. 50 µL of the RNP complex was added to cells in 450 µL of fresh high glucose DMEM (ATCC, 30-2002), supplemented with 10 % FBS and without antibiotics and cells were incubated with the RNP complex for 48 h at 37 °C.
as §1
as §2, with “At day 6 (144 hours), 0,5 mg/ml MTT was added and incubated for 3 hours, producing formazan crystals that were solubilized with SDS 20%+ HCl 0.02N.” left out
as §3
Tob1 inhibitors selectivity was assessed by comparing dose-responses of ZXR-807, ZXR-810, ZXR-081 and ZXR-090 in H9C2 control cells and H9C2 Tob1 KO cells where Tob1 was depleted by CRISPR/Cas9 technology. […]

[6] = system: hiPSC cardiomyocytes; test: CellTiter-Glo proliferation assay in hiPSC-CMs; type: cell-based, Human; settings: 8nM
Description: Human Induced pluripotent stem-cell derived (iPS-CMs) cardiomyocytes (iCell® Cardiomyocytes, Cat. No. 11713) were purchased from FUJIFILM Cellular Dynamics. hiPSC Cardiomyocytes were seeded into 96 well plates coated with 0,1% gelatin (STEMCELL tech, 07903) with iCell Cardiomyocytes plating medium (Fujifilm, M1001). After 48 hours, the medium was changed to iCell Cardiomyocytes maintenance medium (Fujifilm, M1003) and cells were cultured for 2 weeks with media replacement every 48-72 hours. Cells were maintained in a humidified incubator (Thermo Scientific,HERACELL 150i) in a 95% air 5% CO2 environment at 37 °C
CellTitler-Glo® (Promega, G7570) was used to measure the activity of the compounds of the invention in triggering proliferation in hiPSC-CMs. The CellTiter-Glo® Luminescent Cell Viability Assay, similar to the MTT assay but with higher sensitivity, determines the number of metabolically active and viable cells, and is based on the quantification of ATP levels in the cells.
hiPSC-CMs were seeded at 7000 cells/well in 96-well plates and treated with the compounds of the invention at 8; 40 and 200nM in a 0.3% DMSO containing iCell Cardiomyocyte medium and a control treatment or vehicle with 0.3% DMSO in iCell cardiomyocyte medium. hiPSC-CMs proliferation was measured after 144h (6 days) , and 336 (14 days) of treatment. At each time point, 100 µL of CellTiter Glo (ratio 1:1 CellTiter Glo: cell culture medium ) was added to each well containing 100 µL iCell Cardiomyocyte medium, following the manufacturer's instructions. Luminescence was read in Varioskan (Thermo Fisher Scientific), 30 minutes after adding the reagent.

[7] = system: Ccnb1; test: Real time PCR of proliferation marker gene Ccnb1 in H9C2 cells; type: cell-based, rat; settings: 100 nM in H9C2 cells
Description: as §5, §6

| Structure (SMILES) | H9C2 % Proliferation (normalized to control) [1] | EC50 in H9C2 cells lower than EC50 in Tob1 KO H9C2 cells (selectivity for Tob1) [1] | cell migration of hiPSC-CMs (in words) [2] | Cdk1 mRNA expression increase [3] | nuclear Ki67 expression away from the scratch [4] | nuclear Ki67 signal intensity close to the scratch [4] | EC50 [5] | increase of proliferation rate of hiPSC cardiomyocytes ([6]; 144 hours (6 days)) | time course of effect on proliferation increase (in words) ([6]; peaking at 144 hours and disappearing by 336 hours) | EC50 [1] | Ccnb1 expression (in words) [7] | transcriptional activation of Cdk1 (in words) [3] | increase of proliferation rate of hiPSC cardiomyocytes ([6]; 336 hours (14 days)) |
| --- | --- | --- | --- | --- | --- | --- | --- | --- | --- | --- | --- | --- | --- |
| Cl.N[C@H]1C[C@@H](C(=O)N2CCOCC2)[C@H](c2ccc(Cl)cc2)C1 (relative stereo) [ZXR-081, rel-[(1R,2R,4R)-4-amino-2-(4-chlorophenyl)cyclopentyl]-morpholino-methanone hydrochloride] | 36,6% | < 60,000 | activate cell migration | about 3 fold | increased | significantly increased | 177 nM | 20-28% | transitory effect |  |  |  |  |
| CC(=O)N[C@H]1C[C@@H](C(=O)N2CCOCC2)[C@H](c2ccc(Cl)cc2)C1 (relative stereo) [ZXR-090, rel-N-[(1R,3R,4R)-3-(4-chlorophenyl)-4-(morpholine-4-carbonyl)cyclopentyl]acetamide] | 26,6% | 200-300 | activate cell migration | about 3 fold |  |  | 62.8 nM |  |  | 0.128 nM | more moderately increased |  |  |
| N[C@H]1C[C@@H](C(=O)N2CCSCC2)[C@H](c2ccc(Cl)cc2)C1 (relative stereo) [ZXR-807, rel-[(1R,2R,4R)-4-amino-2-(4-chlorophenyl)cyclopentyl]-thiomorpholino-methanone] | 27,4% | < 60,000 | activate cell migration |  | increased |  | 82.8 nM | 20-28% |  |  | more moderately increased | promote the transcriptional activation | 40% |
| CC(C)N(C)C(=O)[C@@H]1C[C@H](N)C[C@H]1c1ccc(Cl)cc1 (relative stereo) [ZXR-810, rel(1R,2R,4R)-4-amino-2-(4-chlorophenyl)-N-isopropyl-N-methyl-cyclopentanecarboxamide] | 26.5% | 200-300 | activate cell migration |  | increased |  | 62.8 nM | 20-28% |  | 0.62 nM | more moderately increased | promote the transcriptional activation | 40% |
